Test results: patent publication US11207301B2, “Sphingosine 1 phosphate receptor agonists for neuroprotection” (RECEPTOS LLC, priority 2017, dated 2021)
Entries after “also recorded” stand apart in the source; their conditions may differ.

Assays:
[1] = target: T1, Recombinant human MAO-A (Homo sapiens, UniProt P21397); assay: MAO-A inhibition, conversion of kynuramine to 4-hydroxyquinoline; format: biochemical; settings: tested up to 100 μM
T1 construct: purchased Sigma-Aldrich M7316; host or cells: baculovirus infected insect cells
T1 sequence (P21397 1-527): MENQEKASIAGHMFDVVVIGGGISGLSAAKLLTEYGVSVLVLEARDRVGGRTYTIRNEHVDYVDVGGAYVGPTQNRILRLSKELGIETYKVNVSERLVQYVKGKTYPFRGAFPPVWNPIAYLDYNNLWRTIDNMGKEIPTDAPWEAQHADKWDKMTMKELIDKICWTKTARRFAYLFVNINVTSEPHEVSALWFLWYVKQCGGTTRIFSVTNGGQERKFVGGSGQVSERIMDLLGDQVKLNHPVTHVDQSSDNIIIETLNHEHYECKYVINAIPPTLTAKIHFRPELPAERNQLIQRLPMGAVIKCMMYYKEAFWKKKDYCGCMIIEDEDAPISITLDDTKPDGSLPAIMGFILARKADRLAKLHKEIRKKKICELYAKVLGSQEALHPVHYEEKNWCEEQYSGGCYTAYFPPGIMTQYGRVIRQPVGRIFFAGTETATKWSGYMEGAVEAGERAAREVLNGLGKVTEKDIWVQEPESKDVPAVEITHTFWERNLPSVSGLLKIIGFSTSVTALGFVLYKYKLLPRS
Description: The effect of a S1P receptoragonist on MAO-B activity can be assessed by measuring the inhibition of conversion of substrate kynuramine to 4-hydroxyquinoline as described in Example 4.
Compound 1 and Compound 2-S were evaluated for their ability to inhibit MAO-A and MAO-B. Inhibition of the conversion of kynuramine, a substrate for MAO-A and MAO-B, to 4-hydroxyquinoline was used to assess the inhibitory potential of Compound 1 and Compound 2-S. Recombinant human MAO-A (product number M7316) and MAO-B (product number M7441) expressed in baculovirus infected insect cells were obtained from Sigma-Aldrich, Saint Louis, Mo. USA were used as a source of purified MAOs.
Recombinant MAO-A (0.01 mg/mL, final concentrations) and MAO-B (0.02 mg/mL, final concentration) were diluted to desired concentrations in 100 mM potassium phosphate buffer (pH 7.4) containing 5 mM MgCl2. The diluted protein fractions were preincubated with various concentrations of each test compound at 37° C. for 2 min. The concentrations used were 100, 33, 10, 3.3, 1.0, 0.33 μM and acetonitrile/DMSO as vehicle control for MAO-A and 1.0, 0.3, 0.1, 0.03, 0.01, 0.003 μM and acetonitrile/DMSO as vehicle control for MAO-B. The reaction was started by addition of kynuramine to the incubation mixture. The final concentration of kynuramine was 40 μM for MAO-A and 25 μM for MAO-B. The total incubation volume was 0.250 mL. […] The reaction product, 4-hydroxyquinoline was analyzed by LC-MS/MS as described below. […]
The gradient system was used to separate the analytes with a flow rate of 0.5 ml/min using mobile phase A, water containing 0.1% formic acid and mobile phase B, acetonitrile containing 0.1% formic acid. […] The analytes were monitored using multiple reaction monitoring and the ion transitions (Q1/Q3) were as follows: 4-hydroxyquinoline 146/104 (collision energy, CE was 27; declustering potential, DP, 50, and IS (acetaminophen), 152/110 (collision energy, CE was 27; declustering potential, DP, 50). All data were analyzed using AB Sciex Analyst v1.6.2 software.

[2] = system: experimental autoimmune encephalomyelitis (EAE)-induced mouse model of Multiple Sclerosis (MS); assay: Experimental autoimmune encephalomyelitis (EAE)-induced mouse model of multiple sclerosis, oral ozanimod; format: in vivo, C57BL/6 mice; settings: EAE mice
Description: (§1) In one embodiment, the S1P receptor agonist provides therapeutic benefit in the context of relapsing-remitting multiple sclerosis (RRMS), by down-modulating S1P receptor and resulting in retention of autoreactive lymphocytes in secondary lymphoid organs. As set forth in greater detail below, ozanimod activity on immune cell subsets was examined in the experimental autoimmune encephalomyelitis (EAE)-induced mouse model of Multiple Sclerosis (MS). C57BL/6 mice were immunized with MOG35-55 and pertussis toxin to initiate immune cell activation, migration to the spinal cord and neurodegeneration. Animals were treated with oral ozanimod either semi-therapeutically or therapeutically to investigate the impact on peripheral immune cell expansion and migration into the spinal cord. The plasma biomarker of CNS injury, neurofilament light (NfL), was measured at study termination.
as §1, with “Ozanimod” for “In one embodiment, the S1P receptor agonist provides therapeutic benefit in the context of relapsing-remitting multiple sclerosis (RRMS), by down-modulating S1P receptor and resulting in retention of autoreactive lymphocytes in secondary lymphoid organs. As set forth in greater detail below, ozanimod”

Structure (SMILES) | MAO-A inhibition (in words) [1] | spinal cord inflammation and demyelination [2] | reduction of microglia expansion in the spinal cord ([2]; day 18-21 post-immunization) | decrease of monocyte infiltration into the spinal cord ([2]; oral ozanimod) | diminished Th1 and Th17 cell expansion in the periphery ([2]; oral ozanimod) | reduction of the number of Th1 and Th17 cells in the spinal cord ([2]; oral ozanimod) | plasma biomarker of CNS injury NfL ([2]; therapeutic dosing, at study termination, vehicle 3298±350, p=0.05)
CC(C)Oc1ccc(-c2nc(-c3cccc4c3CCC4=O)no2)cc1C#N [Compound 1, 2-isopropoxy-5-(3-(1-oxo-2,3-dihydro-1H-inden-4-yl)-1,2,4-oxadiazol-5-yl)benzonitrile] | not an inhibitor; also recorded: does not inhibit |  |  |  |  |  | 
CC(C)Oc1ccc(-c2nc(-c3cccc4c3CC[C@@H]4NCCO)no2)cc1C#N [Ozanimod] |  | reduce spinal cord inflammation and demyelination | 75% | 65% | 60-70% | ≥ 80% | 2209 ± 393 pg/mL
